# Structures can show the parent of a compound that is named as a salt.
# Target: T1, Recombinant Human SSAO/VAP-1/AOC3 (Homo sapiens, UniProt Q16853)
# T1 construct: purchased R&D systems 3957-AO
# T1 sequence (Q16853 1-763): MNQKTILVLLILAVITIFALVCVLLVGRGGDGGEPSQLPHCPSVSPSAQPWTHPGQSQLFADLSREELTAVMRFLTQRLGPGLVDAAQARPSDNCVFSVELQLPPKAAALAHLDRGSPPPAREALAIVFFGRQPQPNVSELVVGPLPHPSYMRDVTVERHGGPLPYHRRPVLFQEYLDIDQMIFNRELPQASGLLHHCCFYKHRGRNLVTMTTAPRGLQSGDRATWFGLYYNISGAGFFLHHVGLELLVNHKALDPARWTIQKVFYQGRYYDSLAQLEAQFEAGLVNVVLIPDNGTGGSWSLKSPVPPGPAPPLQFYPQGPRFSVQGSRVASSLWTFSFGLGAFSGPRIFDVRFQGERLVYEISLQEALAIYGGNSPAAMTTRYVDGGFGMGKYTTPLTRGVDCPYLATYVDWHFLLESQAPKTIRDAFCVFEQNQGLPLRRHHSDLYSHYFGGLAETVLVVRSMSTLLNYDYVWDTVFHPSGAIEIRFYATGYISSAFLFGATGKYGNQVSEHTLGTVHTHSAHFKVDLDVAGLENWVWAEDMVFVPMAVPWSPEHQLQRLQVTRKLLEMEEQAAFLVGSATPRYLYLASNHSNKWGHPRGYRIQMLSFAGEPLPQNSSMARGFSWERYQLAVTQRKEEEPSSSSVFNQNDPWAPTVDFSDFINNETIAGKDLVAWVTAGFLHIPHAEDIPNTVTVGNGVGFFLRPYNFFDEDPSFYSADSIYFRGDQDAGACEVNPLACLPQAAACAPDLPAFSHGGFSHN
# Assay: Human Semicarbazide-Sensitive Amine Oxidase (SSAO) Assay
# Format: biochemical
# Conditions: recombinant enzyme, 30 minutes preincubation at 37° C., benzylamine substrate, Amplex Ultra Red/HRP fluorescence
# Outline: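 IC50 from kinetic Amplex Ultra Red/HRP fluorescence (ex 544, em 590 nm, 30-120 min) after benzylamine addition. Beforehand, 6-10 compound dilutions were preincubated 30 min at 37 °C with recombinant human SSAO in 50 mM HEPES (enzyme working concentration 2.5 μg/ml).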
row,IC50,SMILES
1,10 to 100 nM,"NC/C(=C\F)COc1ccc(C23CCC(C(=O)NC4(C(F)(F)F)CCOCC4)(CC2)CC3)cc1 [Compound 2.152, (E)-4-(4-((2-(aminomethyl)-3-fluoroallyl)oxy)phenyl)-N-(4-(trifluoromethyl)tetrahydro-2H-pyran-4-yl)bicyclo[2.2.2]octane-1-carboxamide]"
2,≤ 10 nM,"CC1(C)CC(NC(=O)C23CC(c4ccc(OC/C(=C/F)CN)cc4)(C2)C3)CCO1 (stereo not shown) [Compound 3.01, (E)-3-(4-((2-(aminomethyl)-3-fluoroallyl)oxy)phenyl)-N-(2,2-dimethyltetrahydro-2H-pyran-4-yl)bicyclo[1.1.1]pentane-1-carboxamide]"
3,≤ 10 nM,"COc1cncc(CNC(=O)C23CCC(c4ccc(OC/C(=C/F)CN)cc4)(CC2)CC3)n1 [Compound 2.161, (E)-4-(4-((2-(aminomethyl)-3-fluoroallyl)oxy)phenyl)-N-((6-methoxypyrazin-2-yl)methyl)bicyclo[2.2.2]octane-1-carboxamide]"
4,≤ 10 nM,"CCO[C@H]1C[C@@H](NC(=O)C23CCC(c4ccc(OC/C(=C/F)CN)cc4)(CC2)CC3)C1 [Compound 2.150, 4-(4-(((E)-2-(aminomethyl)-3-fluoroallyl)oxy)phenyl)-N-((1s,3s)-3-ethoxycyclobutyl)bicyclo[2.2.2] octane-1-carboxamide]"
5,≤ 10 nM,"NC/C(=C\F)COc1ccc(C23CCC(C(=O)NC4CCOCC4)(CC2)CC3)cc1 [Compound 2.06, (E)-4-(4-((2-(Aminomethyl)-3-fluoroallyl)oxy)phenyl)-N-(tetrahydro-2H-pyran-4-yl)bicyclo[2.2.2]octane-1-carboxamide Hydrochloride]"
6,≤ 10 nM,"NC/C(=C\F)COc1ccc(C23CCC(c4nnc(C5CCOCC5)o4)(CC2)CC3)cc1 [Compound 11.02, (E)-3-fluoro-2-((4-(4-(5-(tetrahydro-2H-pyran-4-yl)-1,3,4-oxadiazol-2-yl)bicyclo[2.2.2]octan-1-yl)phenoxy)methyl)prop-2-en-1-amine]"
7,≤ 10 nM,"NC/C(=C\F)COc1ccc(C23CCC(C(=O)NC4[C@H]5COC[C@H]45)(CC2)CC3)cc1 (stereo in doubt) [Compound 2.70, 4-(4-(((E)-2-(aminomethyl)-3-fluoroallyl)oxy)phenyl)-N-((1R,5S,6r)-3-oxabicyclo[3.1.0]hexan-6-yl)bicyclo[2.2.2]octane-1-carboxamide]"
8,≤ 10 nM,"CN(C(=O)C12CCC(c3ccc(OC/C(=C/F)CN)cc3)(CC1)CC2)C1CCOCC1 [Compound 2.16, (E)-4-(4-((2-(amino-methyl)-3-fluoroallyl)oxy)phenyl)-N-methyl-N-(tetrahydro-2H-pyran-4-yl)bicyclo[2.2.2] octane-1-carboxamide]"
9,≤ 10 nM,"NC/C(=C\F)COc1ccc(C23CCC(C(=O)NC4CCOC4)(CC2)CC3)cc1 (stereo not shown) [Compound 2.21, (E)-4-(4-((2-(amino-methyl)-3-fluoroallyl)oxy)phenyl)-N-(tetrahydrofuran-3-yl)bicyclo[2.2.2]octane-1-carboxamide]"
10,≤ 10 nM,"COC1(CNC(=O)C23CCC(c4ccc(OC/C(=C/F)CN)cc4)(CC2)CC3)CCC1 [Compound 2.92, (E)-4-(4-((2-(aminomethyl)-3-fluoroallyl)oxy)phenyl)-N-((1-methoxycyclobutyl)methyl) bicyclo[2.2.2]octane-1-carboxamide]"
11,≤ 10 nM,"CC(C)OC1CN(C(=O)C23CCC(c4ccc(OC/C(=C/F)CN)cc4)(CC2)CC3)C1 [Compound 2.56, (E)-(4-(4-((2-(aminomethyl)-3-fluoroallyl)oxy)phenyl)bicyclo [2.2.2]octan-1-yl)(3-isopropoxyazetidin-1-yl)methanone]"
12,≤ 10 nM,"CC1(NC(=O)C23CCC(c4ccc(OC/C(=C/F)CN)cc4)(CC2)CC3)CCOCC1 [Compound 2.18, (E)-4-(4-((2-(amino-methyl)-3-fluoroallyl)oxy)phenyl)-N-(4-methyltetrahydro-2H-pyran-4-yl)bicyclo [2.2.2]octane-1-carboxamide]"
13,≤ 10 nM,"NC/C(=C\F)COc1ccc(C23CC(C(=O)NC4CCOCC4)(C2)C3)cc1 [Compound 3, (E)-3-(4-((2-(aminomethyl)-3-fluoroallyl)oxy)phenyl)-N-(tetrahydro-2H-pyran-4-yl)bicyclo[1.1.1]pentane-1-carboxamide]"
14,≤ 10 nM,"CNC(=O)C12CCC(c3ccc(OC/C(=C/F)CN)c(C)c3)(CC1)CC2 [Compound 2, (E)-4-(4-((2-(aminomethyl)-3-fluoroallyl)oxy)-3-methylphenyl)-N-methylbicyclo[2.2.2]octane-1-carboxamide]"
15,≤ 10 nM,"COC[C@H]1C[C@H](NC(=O)C23CCC(c4ccc(OC/C(=C/F)CN)cc4)(CC2)CC3)C1 [Compound 2.126, 4-(4-(((E)-2-(aminomethyl)-3-fluoroallyl)oxy)phenyl)-N-((1r,3r)-3-(methoxymethyl)cyclobutyl) bicyclo[2.2.2]octane-1-carboxamide]"
16,≤ 10 nM,"CC(C)(CO)NC(=O)C12CCC(c3ccc(OC/C(=C/F)CN)cc3)(CC1)CC2 [Compound 2.34, (E)-4-(4-((2-(aminomethyl)-3-fluoroallyl)oxy)phenyl)-N-(1-hydroxy-2-methylpropan-2-yl)bicyclo[2.2.2]octane-1-carboxamide]"
17,≤ 10 nM,"NC/C(=C\F)COc1ccc(C23CCC(C(=O)NCC4(O)CCOCC4)(CC2)CC3)cc1 [Compound 2.35, (E)-4-(4-((2-(aminomethyl)-3-fluoroallyl)oxy)phenyl)-N-((4-hydroxytetrahydro-2H-pyran-4-yl)methyl)bicyclo[2.2.2]octane-1-carboxamide]"
18,≤ 10 nM,"CC(=O)N1CCN(C(=O)C23CCC(c4ccc(OC/C(=C/F)CN)cc4)(CC2)CC3)CC1 [Compound 2.31, (E)-1-(4-(4-(4-((2-(aminomethyl)-3-fluoroallyl)oxy)phenyl)bicyclo [2.2.2]octane-1-carbonyl)piperazin-1-yl)ethanone]"
19,≤ 10 nM,"NC/C(=C\F)COc1ccc(C23CCC(C(=O)NCC(F)(F)CO)(CC2)CC3)cc1 [Compound 2.74, (E)-4-(4-((2-(aminomethyl)-3-fluoroallyl)oxy)phenyl)-N-(2,2-difluoro-3-hydroxypropyl)bicyclo[2.2.2] octane-1-carboxamide]"
20,≤ 10 nM,"COC1(CNC(=O)C23CCC(c4ccc(OC/C(=C/F)CN)cc4)(CC2)CC3)CCOCC1 [Compound 2.98, (E)-4-(4-((2-(aminomethyl)-3-fluoroallyl)oxy)phenyl)-N-((4-methoxytetrahydro-2H-pyran-4-yl)methyl)bicyclo[2.2.2]octane-1-carboxamide]"
21,≤ 10 nM,"NC/C(=C\F)COc1ccc(C23CCC(C(N)=O)(CC2)CC3)cc1 [Compound 2.10, (E)-4-(4-((2-(aminomethyl)-3-fluoroallyl)oxy)phenyl) bicyclo[2.2.2]octane-1-carboxamide]"
22,≤ 10 nM,"COC1(CNC(=O)C23CCC(c4ccc(OC/C(=C/F)CN)cc4)(CC2)CC3)CC1 [Compound 2.144, (E)-4-(4-((2-(aminomethyl)-3-fluoroallyl)oxy)phenyl)-N-((1-methoxycyclopropyl)methyl) bicyclo[2.2.2]octane-1-carboxamide]"
23,≤ 10 nM,"COc1cccc(CNC(=O)C23CCC(c4ccc(OC/C(=C/F)CN)cc4)(CC2)CC3)c1 [Compound 2.127, (E)-4-(4-((2-(aminomethyl)-3-fluoroallyl)oxy)phenyl)-N-(3-methoxybenzyl)bicyclo[2.2.2] octane-1-carboxamide]"
24,≤ 10 nM,"NC/C(=C\F)COc1ccc(C23CCC(C(=O)NCc4nnn[nH]4)(CC2)CC3)cc1 [Compound 2.09, (E)-N-((1H-tetrazol-5-yl)methyl)-4-(4-((2-(aminomethyl)-3-fluoroallyl)oxy)phenyl) bicyclo[2.2.2]octane-1-carboxamide]"
25,≤ 10 nM,"NC/C(=C\F)COc1ccc(C23CCC(C(=O)NC45CC(O)(C4)C5)(CC2)CC3)cc1 [Compound 2.93, (E)-4-(4-((2-(aminomethyl)-3-fluoroallyl)oxy)phenyl)-N-(3-hydroxybicyclo[1.1.1]pentan-1-yl)bicyclo[2.2.2]octane-1-carboxamide]"
26,≤ 10 nM,"NC/C(=C\F)COc1ccc(C23CCC(C(=O)NCC4(O)CCCC4)(CC2)CC3)cc1 [Compound 2.100, (E)-4-(4-((2-(aminomethyl)-3-fluoroallyl)oxy)phenyl)-N-((1-hydroxycyclopentyl)methyl) bicyclo[2.2.2]octane-1-carboxamide]"
27,≤ 10 nM,NC/C(=C\F)COc1ccc(C23CCC(C(=O)N4CCOCC4)(CC2)CC3)cc1 [Compound 2.07]
28,≤ 10 nM,"COCCCNC(=O)C12CCC(c3ccc(OC/C(=C/F)CN)cc3)(CC1)CC2 [Compound 2.83, (E)-4-(4-((2-(aminomethyl)-3-fluoroallyl)oxy)phenyl)-N-(3-methoxypropyl)bicyclo[2.2.2] octane-1-carboxamide]"

# — patent US20200181104A1, “SSAO INHIBITORS AND USES THEREOF” (METACRINE, INC., priority 2018, published 2020)
